Usually melting point stands for the temperature, or range, at which the solid turns liquid. As usually defined, the EC50 is the concentration giving half of the maximal effect.

For data set [1], the target named is T1, recombinant GST-GK (Homo sapiens, UniProt P35557).
T1 sequence (P35557 1-465): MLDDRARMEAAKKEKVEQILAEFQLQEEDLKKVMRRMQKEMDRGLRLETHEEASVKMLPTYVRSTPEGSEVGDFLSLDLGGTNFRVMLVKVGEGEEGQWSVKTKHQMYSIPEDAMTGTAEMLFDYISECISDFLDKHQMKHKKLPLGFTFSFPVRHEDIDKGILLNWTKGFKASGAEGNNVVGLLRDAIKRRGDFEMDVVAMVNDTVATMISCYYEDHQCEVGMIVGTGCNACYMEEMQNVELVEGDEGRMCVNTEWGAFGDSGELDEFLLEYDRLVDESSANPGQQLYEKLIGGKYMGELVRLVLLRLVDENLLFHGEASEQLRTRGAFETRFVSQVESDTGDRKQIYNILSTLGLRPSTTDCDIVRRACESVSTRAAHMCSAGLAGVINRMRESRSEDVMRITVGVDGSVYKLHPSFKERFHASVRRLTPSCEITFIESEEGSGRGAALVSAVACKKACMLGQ
In words: in vitro assay measuring the activation of recombinant GST-GK. The data set is classed as biochemical. The following applies: thioNADH-coupled assay read at 405 nm. From the text:
The glucokinase activation in vitro may be determined by measuring the activation of recombinant GST-GK by a compound of the present invention in the absence or the presence of GKRP, a 68,000 Da protein inhibitor of GK. In these assays, formation of glucose-6-phosphate is coupled directly to the formation of thioNADH. GST-GK catalyzes the reaction of glucose and Mg-ATP to produce glucose-6-phosphate and ADP. Glucose-6-phosphate dehydrogenase (G6PDH) reduces thionicotinamide (thioNAD) to thioNADH. The assay measures the formation of […] at 405 nM.
The basic GK assay components are as follows: 25 mM HEPES (pH 7.1), 25 mM KCl, 2.5 mM MgCl2, 1 mM ATP (Sigma A-5394), 1 mM DTT, 1 mM thioNAD (Sigma T-7375), 80 units/mL G6PDH (Sigma G-5885), 10 mM glucose and […] GST-GK (110 nM). For assessing reversal of GK inhibition by GKRP, 20 μM Fructose-1-phosphate ([…]) and 25 μg/mL of recombinant GKRP (370 nM) are added to these assay components. F-1-P at 1 μM is used as a control in the GK/GKRP assay. F-1-P reverses inhibition of GST-GK by GKRP.
The assay is done in standard, 96-well, round-bottom plates and the total assay volume is 25 μL. […] The plates are then delivered via the Zymark XP arm to a Thermomax plate reader and read kinetically over three min at 405 nM at RT. Units are expressed as milli-optical density per minute (mOD/min).

For the molecule `COc1ccc2nc(NC(=O)C(CC3CCCC3)c3ccc(S(=O)(=O)CCc4ccccc4)cc3)sc2n1` (stereo not shown) [Example 3, 3-Cyclopentyl-N-(5-methoxy-thiazolo[5,4-b]pyridin-2-yl)-2-[4-(2-phenyl-ethanesulfonyl)-phenyl]-propionamide], the melting point lay in the range of 169 to 172 °C.

Molecule `CCOCS(=O)(=O)c1ccc(C(CC2CCCC2)C(=O)Nc2nc3ccc(OC)nc3s2)cc1` (stereo not shown) [Example 1, 3-Cyclopentyl-2-(4-ethoxymethanesulfonyl-phenyl)-N-(5-methoxy-thiazolo[5,4-b]pyridin-2-yl)-propionamide] registered a melting point of 158 to 160 °C. In data set [1], the EC50 is roughly 106 nM.

As to `COc1ccc2nc(NC(=O)C(CC3CCCC3)c3ccc(S(=O)(=O)CC(C)=O)cc3)sc2n1` (stereo not shown) [Example 2, 3-Cyclopentyl-N-(5-methoxy-thiazolo[5,4-b]pyridin-2-yl)-2-[4-(2-oxo-propane-1-sulfonyl)-phenyl]-propionamide], the melting point lay within 67 to 71 °C.

(Values after US7781451B2, “Thiazolopyridine derivatives, pharmaceut ical conditions containing them and methods of treating glucokinase mediated conditions” (Novartis AG, priority 2004, dated 2010).)
